In data set [1] the test system is reserpine induced hypothermia. As to the kind of experiment: Antagonism of reserpine induced hypothermia in mice (antireserpine / antidepressant activity). Particulars: for Antidepressant activity (in words): according to pharmacological testing, reversal of reserpine hypothermia in mice. Type of data set: in vivo.
Procedure: (§1) The compounds were administered intraperitoneally and the activities of the compounds were compared with those of Amitriptyline.
The next data set has as its system tremorine induced tremor. The data set is described as follows: Tremorine induced tremor (central anticholinergic effect). Type of data set: in vivo. The note with it: mice; for ED50: Mus musculus, ip, i.p., dose preventing 50% of response, read-out: Antitremorine effect ED50.
For data set [2] the following is noted: mice, in b83 as compared with Amitriptyline at the same relative potency.
For data set [3], the system named is neurological deficit as measured by traction tests. As to the kind of experiment: Traction test (CNS depressant activity, muscle relaxant action). Type of data set: in vivo. The note with it: mice; for ED50: Mus musculus, ip, traction test, dose preventing 50% of response.
Procedure: as §1
In data set [4] the test system is electroshock induced tonic extensor. The data set is described as follows: Antagonism of electroshock induced tonic extensor (anticonvulsant activity). Type of data set: in vivo. The note with it: Mus musculus, ip; mice; dose preventing 50% of response.
Procedure: as §1
A short description of the next data set: in vivo. Particulars: mouse, ip.
For data set [5], the system named is spontaneous motor activity. As to the kind of experiment: Spontaneous motor activity measured by ANIMEX apparatus (CNS depressant activity). Format: in vivo. Particulars: Mus musculus, ip, mice, i.p., dose preventing 50% of response, read-out: Spontaneous motor activity depression ED50.
Procedure: as §1

Structures can show the parent of a compound that is named as a salt. Where two headings read alike, the source gives them in different places.

The ED50 is the dose that gives a 50% effect, or the effect in half of the subjects. The term LD50 denotes the dose at which mortality reaches 50%. The low end stands for greater toxicity, the high end for lower toxicity.

Procedure for tremorine induced tremor: as §1

Take `CN(C)CCCOc1ccccc1Cc1ccccc1` [2-(3-dimethylaminopropoxy)-diphenylmethane]: the “Antidepressant activity (in words)” value in data set [1] is recorded as “do not possess antidepressant activity”.

`CNCCCOc1ccccc1Cc1ccccc1` [2-(3-methylaminopropoxy) diphenylmethane]: in data set [1], the “Antidepressant activity (in words)” value is on record as “high level of antidepressant activity”. Besides, the “Anticholinergic action (in words)” value in the data set with tremorine induced tremor (as compared with Amitriptyline at the same relative potency) was “weaker CNS depressant and anticholinergic action”. Further, the “Toxicity (in words)” value in data set [2] was “low level of toxicity”; in data set [2] (listed as 2-(3-methylaminopropoxy)diphenylmethane), “lower toxicity”. Further, the “CNS depressant action (in words)” value in data set [3] (as compared with Amitriptyline at the same relative potency, traction test and spontaneous motor activity) is listed as “weaker CNS depressant”.

For `CN(C)CCC=C1c2ccccc2CCc2ccccc21` [Amitriptyline, reference compound], the 50% effective dose (ED50) in data set [4] was 16 mg/kg; in the data set on tremorine induced tremor it was 4 mg/kg; in data set [3] it was 15 mg/kg; in data set [5], 18 mg/kg. Further, the LD50 in “in vivo” came out at 65 mg/kg.

`CN(C)CCOc1ccccc1Cc1ccccc1` [2-(2-dimethylaminoethoxy) diphenylmethane]: the “Antidepressant activity (in words)” value in data set [1] was “do not possess antidepressant activity”.

With `CNCCCOc1ccccc1Cc1ccccc1` [2-(3-methylaminopropoxy) diphenylmethane hydrochloride], the ED50 was determined as 40 mg/kg in data set [4], 42 mg/kg in the data set on tremorine induced tremor, 65 mg/kg in data set [3] and 90 mg/kg in data set [5]. The “Antireserpine activity, Relative Potency” value in data set [1] (mice, i.p., reserpine 5 mg/kg i.p., Amitriptyline = 1) turned out to be 0.56. Besides, the LD50 in the data set “in vivo” was 160 mg/kg.

As for `CNCCOc1ccccc1Cc1ccccc1` [2-(2-methylaminoethoxy) diphenylmethane], in data set [1], the “Antidepressant activity (in words)” value is recorded as “do not possess antidepressant activity”.

Values taken from US4024282A, “Pharmaceutically active 2-(3-alkylaminopropoxy)diphenylmethanes” (Mitsubishi Chemical Industries Ltd., priority 1975, dated 1977).
